From US20250011287A1, “FLUORINE-CONTAINING COMPOUND AND CONTRAST AGENT” (TDK CORPORATION, priority 2021, published 2025)

Key:
[1] = 19F spin-lattice relaxation time (T1) measurement by inversion recovery method, 500 MHz NMR; format: physicochemical; settings: 5 mM/CDCl3, 36° C.
Experimental: (§1) For each of the compounds of Examples 1 to 10, Comparative Example 1, and Comparative Example 2 obtained as above, a ^19F spin-lattice relaxation time (T1) and a ^19F spin-spin relaxation time (T2) were measured by the following method.
The compound was dissolved in a deuterated chloroform solution at a concentration of 5 mM, and the longitudinal relaxation time (T1) of the ^19F nucleus was measured using a 500 MHz NMR device by an inversion recovery method under the conditions described below.
• NMR device: JNM-ECA500 (manufactured by JOEL) • Measurement temperature: 36° C. • Pulse sequence: double_pulse • relaxation_delay: 10 [s] • tau_interval: 4, 3, 2, 1, 0.8, 0.6, 0.4, 0.2, 0.1 [s], 80, 60, 40, 20, 10, 8, 6, 4, 2 [ms] • Accumulated number of times: 128 times

[2] = 19F spin-spin relaxation time (T2) measurement by CPMG method, 500 MHz NMR; format: physicochemical; settings: 5 mM/CDCl3, 36° C.
Experimental: as §1
The compound was dissolved in a deuterated chloroform solution at a concentration of 5 mM, and the transverse relaxation time (T2) of the ^19F nucleus was measured using a 500 MHz NMR device by a Carr-Purcell-Meiboom-Gill (CPMG) method under the conditions described below.
• NMR device: JNM-ECA500 (manufactured by JOEL) • Measurement temperature: 36° C. • relaxation_delay: 10 [s] • tau_step: 1 [ms] • relaxation_delay: 1, 2, 3, 4, 5, 6, 8, 9, 10, 25, 50, 75 [ms], 0.10, 0.25, 0.50, 0.75, 1.00, 1.25, 1.50, 1.75, 2.00 [s] • Accumulated number of times: 128 times

| Compound | T1 (19F spin-lattice relaxation time) [1] [s] | T2 (19F spin-spin relaxation time) [2] [s] |
| --- | --- | --- |
| 4-(3-((1,1,1,3,3,3-hexafluoro-2-(trifluoromethyl)propan-2-yl)oxy)-2,2-bis(((1,1,1,3,3,3-hexafluoro-2-(trifluoromethyl)propan-2-yl)oxy)methyl)propoxy)-2,2,6,6-tetramethylpiperidin-1-oxyl [Compound 11] | 0.077 | 0.057 |
| CCC1(CC)CC(OCCCOCC(COC(C(F)(F)F)(C(F)(F)F)C(F)(F)F)(COC(C(F)(F)F)(C(F)(F)F)C(F)(F)F)COC(C(F)(F)F)(C(F)(F)F)C(F)(F)F)CC(CC)(CC)N1O [Compound 17] | 0.172 | 0.108 |
| CC1(C)CC(OCCOCC(COC(C(F)(F)F)(C(F)(F)F)C(F)(F)F)(COC(C(F)(F)F)(C(F)(F)F)C(F)(F)F)COC(C(F)(F)F)(C(F)(F)F)C(F)(F)F)CC(C)(C)N1O [Compound 14] | 0.153 | 0.101 |
| 4-(3-((1,1,1,3,3,3-hexafluoro-2-(trifluoromethyl)propan-2-yl)oxy)-2-(((1,1,1,3,3,3-hexafluoro-2-(trifluoromethyl)propan-2-yl)oxy)methyl)-2-methylpropoxy)-2,2,6,6-tetramethylpiperidin-1-oxyl [Compound 13] | 0.071 | 0.050 |
| CCC1(CC)CC(OCCOCC(COC(C(F)(F)F)(C(F)(F)F)C(F)(F)F)(COC(C(F)(F)F)(C(F)(F)F)C(F)(F)F)COC(C(F)(F)F)(C(F)(F)F)C(F)(F)F)CC(CC)(CC)N1O [Compound 15] | 0.145 | 0.092 |
| CC1(C)CC(OCCCCCCOCC(COC(C(F)(F)F)(C(F)(F)F)C(F)(F)F)(COC(C(F)(F)F)(C(F)(F)F)C(F)(F)F)COC(C(F)(F)F)(C(F)(F)F)C(F)(F)F)CC(C)(C)N1O [Compound 18] | 0.428 | 0.274 |
| CC1(C)CC(OCCCCCCCCCOCC(COC(C(F)(F)F)(C(F)(F)F)C(F)(F)F)(COC(C(F)(F)F)(C(F)(F)F)C(F)(F)F)COC(C(F)(F)F)(C(F)(F)F)C(F)(F)F)CC(C)(C)N1O [Compound 19] | 0.520 | 0.332 |
| 1,3-Bis(2,2,2-trifluoro-1,1-bis(trifluoromethyl(ethoxy)-2,2-bis((2,2,2-trifluoro-1,1-bis(trifluoromethyl)ethoxy)methyl)propane [Compound A1, reference compound] | 1.380 | 1.270 |
| CC1(C)CC(OCCCOCC(COC(C(F)(F)F)(C(F)(F)F)C(F)(F)F)(COC(C(F)(F)F)(C(F)(F)F)C(F)(F)F)COC(C(F)(F)F)(C(F)(F)F)C(F)(F)F)CC(C)(C)N1O [Compound 16] | 0.183 | 0.120 |
| CC1(C)CC(OCCCCCCCCCCCCOCC(COC(C(F)(F)F)(C(F)(F)F)C(F)(F)F)(COC(C(F)(F)F)(C(F)(F)F)C(F)(F)F)COC(C(F)(F)F)(C(F)(F)F)C(F)(F)F)CC(C)(C)N1O [Compound 20] | 0.612 | 0.390 |
| CCC1(CC)CC(OCC(COC(C(F)(F)F)(C(F)(F)F)C(F)(F)F)(COC(C(F)(F)F)(C(F)(F)F)C(F)(F)F)COC(C(F)(F)F)(C(F)(F)F)C(F)(F)F)CC(CC)(CC)N1O [Compound 12, 4-(3-((1,1,1,3,3,3-hexafluoro-2-(trifluoromethyl)propan-2-yl)oxy)-2,2-bis(((1,1,1,3,3,3-hexafluoro-2-(trifluoromethyl)propan-2-yl)oxy)methyl)propoxy)-2,2,6,6-tetraethylpiperidin-1-oxyl] | 0.070 | 0.049 |
